We go through seven compounds from patent publication US20100137448A1, “Methods for Treating Neuropsychiatric Disorders with NMDA Receptor Antagonists” (priority 2000, published 2010).

“Also recorded” adds a separate entry of the source. Bounds are passed on as bounds.

The subject of data set [1] is precontracted aortic vessel. Description: Relaxation of norepinephrine-precontracted rabbit aortic rings. It counts as tissue-based. How it is done: New Zealand white female rabbits weighing 3-4 kilograms were anesthetized with sodium pentobarbital, 13 milligram per kilogram. Descending thoracic aorta were isolated, the vessels were cleaned of adherent tissue and the endothelium was removed by a gentle rubbing with a cotton-tipped applicator inserted into the lumen. The vessels were cut into 5 millimeter rings and mounted on stirrups connected to transducers by which changes in isometric tension were recorded (model TO3C, Grass Instruments, Quincy, Mass.). Vessel rings were suspended in 20 mL of oxygenated Krebs buffer at 37° C. and sustained contractions were induced with 1 μM norepinephrine. The vessels were then relaxed in a dose-dependent fashion ([…] through 10^−5 M compound 8). In some experiments vessels were pretreated with methylene blue or […] hemoglobin to block relaxations.
Relaxations were attenuated by methylene blue (c) and hemoglobin (d) indicating an NO-related effect. (b) is a control with solvent.

Another data set deals with cerebrocortical neurons. Description: NMDA-induced apoptosis of cerebrocortical neurons (in vitro protection). It counts as cell-based. How it is done:
Cerebrocortical cultures were exposed to 300 μM NMDA for 20 mm with or without various concentrations of compound 7. The next day cultures were analyzed by neuronal apoptosis as described in Example 19.
Under these conditions (300 μM NMDA exposure for 20 mm, followed by washout), neuronal apoptosis was monitored 24 hours later by propidium iodide uptake and morphology of fixed, permeabilized neurons, among other techniques (Bonfoco et al., Proc Natl Acad Sci USA (1995) 92: 7162). NMDA induced about 20% apoptosis of neurons, and that 25-100 μM compound 7 afforded protection from this damage (P<0.001, FIG. 5).

The next data set deals with C57B1/6 mice. Put plainly: Murine cerebral ischemia model, intraluminal suture MCA occlusion. It is filed as in vivo. How it is done:
The intraluminal suture technique was used to produce a 2 hr occlusion of the middle cerebral artery (MCA), following the same protocol for focal cerebral ischemial reperfusion as published previously (Chen, et al., Neuroscience (1998) 86: 1121). However, here C57B1/6 mice were used instead of rats. […] To produce a neuroprotective concentration of compound 7, the loading dose was 100 mg/kg i.p. and the maintenance dose was 40 mg/kg i.p. every 12 hr. In each case, drug or vehicle control was initially administered 2 hr after MCA occlusion. […] The animals were sacrificed and analyzed with TTC staining 48 hr after MCA occlusion (Chen, et al., Neuroscience (1998) 86: 1121).

The target of the next data set is human albumin (Homo sapiens, UniProt P02768). Particulars: cited from earlier work.
Chain of human albumin (P02768 25-609): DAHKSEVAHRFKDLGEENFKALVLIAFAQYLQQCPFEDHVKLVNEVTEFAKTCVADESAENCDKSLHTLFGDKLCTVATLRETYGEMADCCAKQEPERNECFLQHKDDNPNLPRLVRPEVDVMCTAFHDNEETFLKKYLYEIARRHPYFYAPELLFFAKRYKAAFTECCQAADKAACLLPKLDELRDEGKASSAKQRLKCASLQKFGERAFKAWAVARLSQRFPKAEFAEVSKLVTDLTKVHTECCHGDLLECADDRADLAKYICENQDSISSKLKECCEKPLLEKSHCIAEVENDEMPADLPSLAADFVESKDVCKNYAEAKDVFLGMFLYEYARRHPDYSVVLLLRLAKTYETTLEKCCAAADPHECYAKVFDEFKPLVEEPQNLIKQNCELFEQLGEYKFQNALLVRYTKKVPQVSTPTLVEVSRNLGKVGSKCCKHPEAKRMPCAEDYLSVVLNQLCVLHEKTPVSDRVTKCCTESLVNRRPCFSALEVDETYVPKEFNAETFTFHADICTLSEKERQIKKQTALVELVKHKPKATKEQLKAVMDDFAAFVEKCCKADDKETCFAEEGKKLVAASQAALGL
For data set [2] the following is noted: cited from earlier work.
The conditions of data set [3]: humans, 5 to 30 mg/day; cited from earlier work.
For data set [4] the following is noted: loading dose 20 mg/kg i.p., maintenance 1 mg/kg/12 hours; cited from earlier work.

Consider “1-amino-3,5-dimethyl-7-hydroxyadamantane hydrochloride [Compound 9]”, for which the “effect on blood vessel, compared with solvent (EtOH)” value in data set [1] (FIG. 8, hydrochloride) is on record as “either no effect or slight blood vessel contractions”; in data set [1] (FIG. 8, listed as compound 9, hydrochloride), “either no effect or slight contractions of blood vessels”.

The term melting point denotes the temperature, or range, at which the solid turns liquid. The compound `CC(=O)NC12CC3(C)CC(C)(CC(O)(C3)C1)C2` [Compound 3, 1-acetamido-3,5-dimethyl-7-hydroxyadamantane] yielded a melting point of 194 to 195 °C.

With `CC12CC3(C)CC(N)(C1)CC(O[N+](=O)[O-])(C2)C3.Cl` [Compound 7, 1-amino-3,5-dimethyl-7-nitrateadamantane hydrochloride], the “concentration affording protection from NMDA-induced apoptosis” value in the data set with cerebrocortical neurons (300 μM NMDA 20 mm, washout, apoptosis monitored 24 hours later, NMDA induced about 20% apoptosis, P<0.001) was 25 to 100 µM. Further, in the data set with cerebrocortical neurons (300 μM NMDA for 20 mm, analysed next day, various concentrations, dose-dependent, P<0.001, n=3 cultures), the NMDA-induced neuronal apoptosis result is “largely prevented”. In the data set with C57B1/6 mice (2 hr MCA occlusion, loading 100 mg/kg i.p., maintenance 40 mg/kg i.p. every 12 hr, first dose 2 hr after occlusion, TTC staining 48 hr, n=3, P<0.03 from control, P<0.05 from memantine), the “cerebral damage after stroke” value is listed as “effective in decreasing cerebral damage after stroke”. Besides, the “neuroprotection compared with memantine” value with C57B1/6 mice (memantine 20 mg/kg i.p. loading, 1 mg/kg/12 hours maintenance, compound 7 100 mg/kg i.p. loading, 40 mg/kg i.p. every 12 hr) was “more neuroprotective than memantine”. Also, the “effect on blood vessel at 10 μM” value in data set [1] (10 μM concentration, FIG. 8) was “modest relaxation”.

For `CC(=O)NC12CC3(C)CC(C)(C1)CC(O[N+](=O)[O-])(C3)C2` [Compound 8, 1-acetamido-3,5-dimetbyl-7-nitrateadamantane], in data set [1] (endothelium-denuded rings, 1 μM norepinephrine), the “effect on precontracted aortic vessel” value is given as “relaxes a precontracted aortic vessel in a dose-dependent fashion”. Besides, the “relaxations after pretreatment with hemoglobin” value in data set [1] (vessels pretreated with hemoglobin) is “attenuated”. Besides, the “relaxations after pretreatment with methylene blue” value in data set [1] (vessels pretreated with methylene blue) was “attenuated”.

Regarding `CC12CC3(C)CC(O)(C1)CC(N(Cc1ccccc1)Cc1ccccc1)(C2)C3` [Compound 10, 1,1-dibenzylamino-3,5-dimethyl-7-hydroxy-adamantane], the “effect on blood vessel, compared with solvent (EtOH)” value in data set [1] (FIG. 8) is “either no effect or slight contractions of blood vessels; also recorded: either no effect or slight blood vessel contractions”.

The compound `CC(=O)NC12CC3(C)CC(C)(CC(CO)(C3)C1)C2` [Compound 17, 1-Acetamido-3,5-dimethyl-7-hydroxymethyladamantane] registered a melting point of 152 to 153 °C.

For `CC12CC3CC(C)(C1)CC(N)(C3)C2` [memantine, 1-amino-3,5-dimethyladamantane], at human albumin, the “bound to human albumin” value is recorded as less than 10%. Further, the “average half-life, first therapeutically relevant phase” value in data set [2] (biphasic elimination, first phase) is 4 to 9 h. Further, the “average half-life, second phase” value in data set [2] (biphasic elimination, second phase) is 40 to 65 h. Also, in data set [2] (in vivo), the “elimination by the renal route” value is recorded as 75%-90% and the fecal excretion is recorded as 10%-25%. Moreover, in data set [3], the “mean CSF/serum ratio” value was 0.52. Moreover, the “parenchymal levels in the brain” value in data set [4] was 1 to 10 µM.
